Experimental data: EP4592286A1, “MACROCYCLIC NITROGEN-CONTAINING CROWN ETHER COMPOUND AND USE THEREOF AS PROTEIN KINASE INHIBITOR” (Artivila Biopharma, priority 2022, dated 2024)

Tests used:
Format in all cases: biochemical
JAK2 = JAK2 (Homo sapiens, UniProt O60674); assay: experiment of inhibiting kinase activity (Caliper mobility shift assay), JAK2; settings: for inhibition at 0.01 µM: at 10 nM; for inhibition at 0.01 µM / inhibition at 0.1 µM: read-out: inhibition rate JAK2; for inhibition at 0.1 µM: at 100 nM; for IC50: kinase activity assay, Table 3
Protocol: (§1) The inhibition rates of tested compounds on JAK1, JAK2, JAK3, TYK2, CDK7, CDK9, EGFR (T790M) and LRRK2 kinases were measured. The test concentrations of the compounds were 10 nM and 100 nM, and the detection was performed by replicate wells. Alternatively, compounds were 3-fold serial diluted from 10 µM for 10 concentrations in replicate wells.
(§2) The inhibitory effects of the compounds on JAK1, JAK2, JAK3, CDK7 and CDK9 kinases were detected by the method of Caliper mobility shift assay. 250 nL of the compound at 100-fold final concentration was transferred to a destination plate 384-well-plate by using a liquid handler Echo 550. A kinase solution at 2.5-fold final concentration was prepared with 1×kinase buffer. 10 µL of the kinase solution with 2.5-fold final concentration was added to compound wells and positive control wells; and 10 µL of 1×kinase buffer was added to negative control wells. The mixture was centrifuged at 1000 rpm for 30 seconds and then incubated at room temperature for 10 minutes. A mixed solution of ATP and kinase substrate at 5/3-fold final concentration was prepared with 1×kinase buffer, and 15 µL of the mixed solution of ATP and substrate at 5/3-fold final concentration was added to start the reaction. The 384-well plate was centrifuged at 1000 rpm for 30 seconds, shaked and mixed evenly, then incubated at room temperature for a corresponding time. 30 µL of stop solution was added to stop the kinase reaction, the mixture was centrifuged at 1000 rpm for 30 seconds, and shaked and mixed evenly. The conversion rate was read by Caliper EZ Reader. The conversion inhibition rate%=(average positive control conversion rate%-sample conversion rate%)/(average positive control conversion rate%-average negative control conversion rate%). Where negative control wells represent the conversion readings of the background well of kinase buffer; and positive control wells represent the conversion readings of wells without compound inhibition. With the log value of concentration as the x axis and the percentage inhibition rate as the y axis, the dose-response curve was fitted by the log (inhibitor) vs. response-variable slope of the analyzing softwar GraphPad Prism 5, and the IC50 values of each compound on enzyme activity were obtained. Calculation formula is as follows: y=Bottom+(Top-Bottom)/(1+10^((LogIC50-x)×hillslope)), where x is logarithm of inhibitor concentration; and Y is % inhibition rate.

JAK3 = biological target: T1, JAK3 (Homo sapiens, UniProt P52333); assay: experiment of inhibiting kinase activity (Caliper mobility shift assay), JAK3; settings: for inhibition at 0.01 µM: at 10 nM; for inhibition at 0.01 µM / inhibition at 0.1 µM: read-out: inhibition rate JAK3; for inhibition at 0.1 µM: at 100 nM
T1 sequence (P52333 1-1124): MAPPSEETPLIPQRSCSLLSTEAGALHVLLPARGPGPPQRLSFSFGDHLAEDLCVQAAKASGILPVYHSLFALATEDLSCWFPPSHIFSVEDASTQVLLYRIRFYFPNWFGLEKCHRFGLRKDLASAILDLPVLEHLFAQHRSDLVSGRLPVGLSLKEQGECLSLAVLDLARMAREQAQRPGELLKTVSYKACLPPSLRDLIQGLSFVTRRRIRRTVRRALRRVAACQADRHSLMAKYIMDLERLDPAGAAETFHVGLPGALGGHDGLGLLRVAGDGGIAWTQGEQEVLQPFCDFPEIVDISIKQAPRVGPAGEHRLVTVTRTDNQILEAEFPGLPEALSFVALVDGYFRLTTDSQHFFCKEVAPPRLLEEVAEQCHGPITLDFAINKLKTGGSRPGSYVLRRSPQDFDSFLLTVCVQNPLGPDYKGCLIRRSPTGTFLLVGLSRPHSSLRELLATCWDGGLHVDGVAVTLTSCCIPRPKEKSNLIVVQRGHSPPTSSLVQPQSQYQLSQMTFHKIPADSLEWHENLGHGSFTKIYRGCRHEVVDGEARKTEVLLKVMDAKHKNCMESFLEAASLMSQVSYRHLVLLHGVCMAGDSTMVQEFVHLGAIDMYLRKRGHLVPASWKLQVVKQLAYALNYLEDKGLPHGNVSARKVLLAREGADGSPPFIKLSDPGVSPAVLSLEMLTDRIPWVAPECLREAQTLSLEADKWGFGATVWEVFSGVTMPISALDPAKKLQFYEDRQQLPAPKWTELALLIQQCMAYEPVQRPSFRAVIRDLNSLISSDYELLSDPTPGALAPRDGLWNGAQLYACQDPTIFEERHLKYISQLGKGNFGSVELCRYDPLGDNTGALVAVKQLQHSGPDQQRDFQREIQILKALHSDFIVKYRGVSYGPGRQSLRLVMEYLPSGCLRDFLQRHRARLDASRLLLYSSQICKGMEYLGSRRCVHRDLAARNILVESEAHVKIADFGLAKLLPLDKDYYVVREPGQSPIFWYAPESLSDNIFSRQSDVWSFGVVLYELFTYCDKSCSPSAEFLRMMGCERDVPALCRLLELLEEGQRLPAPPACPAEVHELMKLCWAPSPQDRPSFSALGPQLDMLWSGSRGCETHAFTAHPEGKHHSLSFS
Protocol: as §1, §2

LRRK2 = LRRK2 (Homo sapiens, UniProt Q5S007); assay: experiment of inhibiting kinase activity, LRRK2; settings: for inhibition at 0.01 µM: at 10 nM; for inhibition at 0.01 µM / inhibition at 0.1 µM: read-out: inhibition rate LRRK2; for inhibition at 0.1 µM: at 100 nM; for IC50: kinase activity assay, Table 3
Protocol: as §1

JAK1 = JAK1 (Homo sapiens, UniProt P23458); assay: experiment of inhibiting kinase activity (Caliper mobility shift assay), JAK1; settings: for inhibition at 0.01 µM: at 10 nM; for inhibition at 0.01 µM / inhibition at 0.1 µM: read-out: inhibition rate JAK1; for inhibition at 0.1 µM: at 100 nM
Protocol: as §1, §2

TYK2 = TYK2 (Homo sapiens, UniProt P29597); assay: experiment of inhibiting kinase activity, TYK2; settings: read-out: inhibition rate TYK2; for inhibition at 0.01 µM: at 10 nM; for inhibition at 0.1 µM: at 100 nM
Protocol: as §1

CDK7 = CDK7 (Homo sapiens, UniProt P50613); assay: experiment of inhibiting kinase activity (Caliper mobility shift assay), CDK7; settings: read-out: inhibition rate CDK7
Protocol: as §1, §2

Chain of TYK2 (P29597 whole entry): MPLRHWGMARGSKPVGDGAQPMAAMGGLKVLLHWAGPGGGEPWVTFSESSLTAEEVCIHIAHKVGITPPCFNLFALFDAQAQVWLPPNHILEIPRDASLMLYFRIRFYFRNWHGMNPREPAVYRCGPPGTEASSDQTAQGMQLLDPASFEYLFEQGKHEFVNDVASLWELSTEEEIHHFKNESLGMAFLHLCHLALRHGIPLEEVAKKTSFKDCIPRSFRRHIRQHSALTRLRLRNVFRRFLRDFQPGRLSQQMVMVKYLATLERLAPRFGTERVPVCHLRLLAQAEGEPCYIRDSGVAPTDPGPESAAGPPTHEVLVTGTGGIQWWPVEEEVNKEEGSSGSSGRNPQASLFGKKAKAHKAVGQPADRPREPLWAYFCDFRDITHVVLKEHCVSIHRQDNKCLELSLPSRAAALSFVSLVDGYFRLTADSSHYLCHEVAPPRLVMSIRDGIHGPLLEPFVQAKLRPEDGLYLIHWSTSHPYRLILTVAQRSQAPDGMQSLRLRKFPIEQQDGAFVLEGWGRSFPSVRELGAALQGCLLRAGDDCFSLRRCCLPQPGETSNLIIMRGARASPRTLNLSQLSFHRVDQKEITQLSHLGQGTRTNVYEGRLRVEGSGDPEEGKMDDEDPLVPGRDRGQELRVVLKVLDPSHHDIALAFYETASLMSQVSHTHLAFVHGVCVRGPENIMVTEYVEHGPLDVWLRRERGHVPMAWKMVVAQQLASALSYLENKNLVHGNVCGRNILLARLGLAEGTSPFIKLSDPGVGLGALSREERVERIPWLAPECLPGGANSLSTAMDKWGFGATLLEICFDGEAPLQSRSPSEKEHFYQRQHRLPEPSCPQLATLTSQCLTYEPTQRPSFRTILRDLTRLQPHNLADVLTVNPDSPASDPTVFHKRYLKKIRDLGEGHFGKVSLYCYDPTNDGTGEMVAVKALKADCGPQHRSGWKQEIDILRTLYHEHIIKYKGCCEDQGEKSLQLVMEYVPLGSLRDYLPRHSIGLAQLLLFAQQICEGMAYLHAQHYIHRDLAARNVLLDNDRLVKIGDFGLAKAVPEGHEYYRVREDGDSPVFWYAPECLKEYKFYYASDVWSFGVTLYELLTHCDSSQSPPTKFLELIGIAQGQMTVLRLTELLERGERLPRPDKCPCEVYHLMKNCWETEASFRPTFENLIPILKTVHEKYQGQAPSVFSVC
Chain of LRRK2 (Q5S007 whole entry): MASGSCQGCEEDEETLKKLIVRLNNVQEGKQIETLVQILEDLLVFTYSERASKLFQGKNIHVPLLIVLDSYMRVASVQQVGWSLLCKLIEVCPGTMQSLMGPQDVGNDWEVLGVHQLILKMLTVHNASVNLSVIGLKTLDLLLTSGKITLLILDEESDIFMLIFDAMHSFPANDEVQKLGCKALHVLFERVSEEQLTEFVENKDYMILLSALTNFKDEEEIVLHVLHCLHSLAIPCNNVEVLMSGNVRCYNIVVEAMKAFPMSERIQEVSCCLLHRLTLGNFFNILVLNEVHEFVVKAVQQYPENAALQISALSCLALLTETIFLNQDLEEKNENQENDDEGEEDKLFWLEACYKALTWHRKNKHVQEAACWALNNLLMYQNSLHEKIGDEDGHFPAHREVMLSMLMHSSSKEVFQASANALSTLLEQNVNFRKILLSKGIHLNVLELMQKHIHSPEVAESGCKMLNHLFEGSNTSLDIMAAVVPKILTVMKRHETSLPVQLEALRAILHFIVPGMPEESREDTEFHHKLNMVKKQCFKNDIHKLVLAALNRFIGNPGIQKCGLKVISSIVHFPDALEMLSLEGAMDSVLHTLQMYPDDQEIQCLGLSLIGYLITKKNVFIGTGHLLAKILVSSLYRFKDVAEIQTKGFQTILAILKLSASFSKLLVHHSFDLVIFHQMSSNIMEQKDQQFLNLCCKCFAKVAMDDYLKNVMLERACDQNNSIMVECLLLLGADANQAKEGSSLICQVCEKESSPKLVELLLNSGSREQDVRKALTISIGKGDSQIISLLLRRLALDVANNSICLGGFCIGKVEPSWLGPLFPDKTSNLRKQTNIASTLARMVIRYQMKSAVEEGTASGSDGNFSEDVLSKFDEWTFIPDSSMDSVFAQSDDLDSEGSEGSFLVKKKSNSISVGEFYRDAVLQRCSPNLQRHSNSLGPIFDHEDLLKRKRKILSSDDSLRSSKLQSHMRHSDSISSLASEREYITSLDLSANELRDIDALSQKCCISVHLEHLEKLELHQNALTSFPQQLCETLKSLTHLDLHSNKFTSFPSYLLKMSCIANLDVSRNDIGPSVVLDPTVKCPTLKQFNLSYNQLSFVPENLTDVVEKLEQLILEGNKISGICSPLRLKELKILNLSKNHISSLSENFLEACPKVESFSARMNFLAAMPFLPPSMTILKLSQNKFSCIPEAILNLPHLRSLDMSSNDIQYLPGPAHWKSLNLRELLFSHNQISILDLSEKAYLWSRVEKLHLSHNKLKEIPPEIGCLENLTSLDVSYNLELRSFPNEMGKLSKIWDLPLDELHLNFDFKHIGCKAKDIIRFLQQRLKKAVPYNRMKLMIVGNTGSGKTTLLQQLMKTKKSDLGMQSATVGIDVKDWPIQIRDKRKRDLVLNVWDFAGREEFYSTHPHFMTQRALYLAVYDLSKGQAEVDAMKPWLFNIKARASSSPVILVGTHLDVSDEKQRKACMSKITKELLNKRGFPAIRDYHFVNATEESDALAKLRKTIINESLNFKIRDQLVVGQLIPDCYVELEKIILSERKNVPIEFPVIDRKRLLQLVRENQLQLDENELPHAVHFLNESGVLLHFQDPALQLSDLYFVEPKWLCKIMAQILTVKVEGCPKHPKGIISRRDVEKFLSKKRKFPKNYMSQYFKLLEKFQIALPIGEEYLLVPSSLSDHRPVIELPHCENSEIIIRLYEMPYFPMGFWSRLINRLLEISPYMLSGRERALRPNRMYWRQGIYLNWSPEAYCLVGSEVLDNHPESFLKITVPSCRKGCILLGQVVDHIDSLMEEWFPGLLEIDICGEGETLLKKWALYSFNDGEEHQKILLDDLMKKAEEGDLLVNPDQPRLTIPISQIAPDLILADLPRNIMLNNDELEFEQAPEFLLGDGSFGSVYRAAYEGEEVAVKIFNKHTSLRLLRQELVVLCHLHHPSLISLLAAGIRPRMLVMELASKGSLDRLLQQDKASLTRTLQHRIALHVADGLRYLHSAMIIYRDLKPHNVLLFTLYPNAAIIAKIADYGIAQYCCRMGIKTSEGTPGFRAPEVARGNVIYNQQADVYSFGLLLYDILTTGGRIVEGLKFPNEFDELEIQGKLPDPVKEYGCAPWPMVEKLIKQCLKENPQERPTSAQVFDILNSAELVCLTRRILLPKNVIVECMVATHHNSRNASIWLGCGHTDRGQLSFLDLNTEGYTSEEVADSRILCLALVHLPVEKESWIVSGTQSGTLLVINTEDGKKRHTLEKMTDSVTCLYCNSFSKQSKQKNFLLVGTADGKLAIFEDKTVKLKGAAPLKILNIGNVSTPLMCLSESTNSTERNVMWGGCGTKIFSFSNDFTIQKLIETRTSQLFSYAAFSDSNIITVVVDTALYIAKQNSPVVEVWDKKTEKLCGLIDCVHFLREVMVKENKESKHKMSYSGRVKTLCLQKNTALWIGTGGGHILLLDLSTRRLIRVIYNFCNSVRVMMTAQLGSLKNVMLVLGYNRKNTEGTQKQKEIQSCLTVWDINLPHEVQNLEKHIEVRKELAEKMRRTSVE
Chain of JAK2 (O60674 whole entry): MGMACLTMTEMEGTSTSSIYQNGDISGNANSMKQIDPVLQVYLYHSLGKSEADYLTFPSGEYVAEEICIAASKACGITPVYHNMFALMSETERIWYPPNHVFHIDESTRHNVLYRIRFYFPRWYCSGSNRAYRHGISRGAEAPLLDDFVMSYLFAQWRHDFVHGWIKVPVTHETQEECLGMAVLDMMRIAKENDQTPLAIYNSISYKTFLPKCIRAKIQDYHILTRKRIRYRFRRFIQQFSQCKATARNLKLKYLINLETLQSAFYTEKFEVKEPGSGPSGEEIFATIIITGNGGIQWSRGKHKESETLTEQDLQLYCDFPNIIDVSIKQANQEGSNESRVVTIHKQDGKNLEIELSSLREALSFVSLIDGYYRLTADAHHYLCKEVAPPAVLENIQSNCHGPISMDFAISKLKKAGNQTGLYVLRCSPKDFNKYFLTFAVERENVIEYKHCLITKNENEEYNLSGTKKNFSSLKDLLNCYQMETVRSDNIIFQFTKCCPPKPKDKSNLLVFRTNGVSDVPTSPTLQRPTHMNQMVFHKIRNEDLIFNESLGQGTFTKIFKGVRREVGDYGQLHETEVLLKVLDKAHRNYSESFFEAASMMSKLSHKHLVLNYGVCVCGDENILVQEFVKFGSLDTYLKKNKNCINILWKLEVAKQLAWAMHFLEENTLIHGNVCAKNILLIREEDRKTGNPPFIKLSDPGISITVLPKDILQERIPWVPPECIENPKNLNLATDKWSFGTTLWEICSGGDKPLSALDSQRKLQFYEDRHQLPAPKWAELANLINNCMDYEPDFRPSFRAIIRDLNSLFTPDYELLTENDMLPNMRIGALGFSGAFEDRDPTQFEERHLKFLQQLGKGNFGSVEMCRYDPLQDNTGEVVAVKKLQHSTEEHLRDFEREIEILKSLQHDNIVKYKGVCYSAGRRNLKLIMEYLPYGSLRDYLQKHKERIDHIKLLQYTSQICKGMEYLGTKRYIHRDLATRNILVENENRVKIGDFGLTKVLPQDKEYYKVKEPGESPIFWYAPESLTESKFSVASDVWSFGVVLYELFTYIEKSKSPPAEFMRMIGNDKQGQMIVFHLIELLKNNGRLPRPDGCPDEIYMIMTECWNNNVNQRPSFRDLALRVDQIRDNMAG

Row | inhibition at 0.01 µM (JAK2) | inhibition at 0.01 µM (JAK3) | inhibition at 0.01 µM (LRRK2) | inhibition at 0.01 µM (JAK1) | inhibition at 0.01 µM (TYK2) | SMILES | other results
1 | > 80% | 40 to 79% | 40 to 79% | 40 to 79% | 40 to 79% | CN1CCOCCOc2cc(Nc3nc(-c4ccc(C(=O)NCC#N)cc4)c4cc[nH]c4n3)ccc2OCC1 [Example 17, N-(cyanomethyl)-4-(2-((7-methyl-2,3,6,7,8,9-hexahydro-5H-benzo[b][1,4,7]trioxa [10]azacyclododecan-13-yl)amino)-7H-pyrrolo[2,3-d]pyrimidin-4-yl)benzamide] | –
2 | > 80% | 40 to 79% | 40 to 79% | 40 to 79% | > 80% | CN1CCOc2ccc(Nc3nc(-c4cnn([C@H](CC#N)C5CCCC5)c4)c4cc[nH]c4n3)cc2OCC1 [Example 76, (R)-3-cyclopentyl-3-(4-(2-((4-methyl-3,4,5,6-tetrahydro-2H-benzo[b][1,4,7]dioxazolin-9-yl)amino)-7H-pyrrolo[2,3-d]pyrimidin-4-yl)-1H-pyrazol-1-yl)propanenitrile] | –
3 | – | – | – | – | – | CCS(=O)(=O)N1CC(CC#N)(n2cc(-c3nc(Nc4ccc5c(c4)OCCN(C)CCO5)nc4[nH]ncc34)cn2)C1 [Example 29, 2-(1-(ethylsulfonyl)-3-(4-(6-((4-methyl-3,4,5,6-tetrahydro-2H-benzo[b][1,4,7]dioxazolin-9-yl)amino)-1H-pyrazolo[3,4-d]pyrimidin-4-yl)-1H-pyrazol-1-yl)azetidin-3-yl) acetonitrile] | inhibition at 0.1 µM (JAK2): > 80%; IC50 (JAK2): < 50 nM; IC50 (JAK3; kinase activity assay, Table 3): < 50 nM; inhibition at 0.1 µM (LRRK2): 40 to 79%; IC50 (LRRK2): 50 to 200 nM; inhibition at 0.1 µM (JAK1): > 80%; IC50 (JAK1; kinase activity assay, Table 3): < 50 nM; inhibition at 0.1 µM (TYK2): > 80%
4 | > 80% | > 80% | > 80% | > 80% | > 80% | CN1CCOCCOc2ccc(Nc3nc(-c4cnn(C(CC#N)C5CCCC5)c4)c4cc[nH]c4n3)cc2OCC1 (centres unmarked) [Example 48, 3-cyclopentyl-3-(4-(2-((7-methyl-2,3,6,7,8,9-hexahydro-5H-benzo[b][1,4,7]trioxa [10]azacyclododecan-12-yl)amino)-7H-pyrrolo[2,3-d]pyrimidin-4-yl)-1H-pyrazol-1-yl) propionitrile] | –
5 | – | – | – | – | – | CN1CCOc2ccc(Nc3nc(-c4ccc(C(=O)NCC#N)cc4)c4cn[nH]c4n3)cc2OCC1 [Example 38, N-(cyanomethyl)-4-(6-((4-methyl-3,4,5,6-tetrahydro-2H-benzo[b][1,4,7]dioxazolin-9-yl)amino)-1H-pyrazolo[3,4-d]pyrimidin-4-yl)benzamide] | inhibition at 0.1 µM (JAK2): > 80%; IC50 (JAK2): < 50 nM; inhibition at 0.1 µM (JAK3): 25 to 39%; inhibition at 0.1 µM (LRRK2): 40 to 79%; IC50 (LRRK2): 50 to 200 nM; inhibition at 0.1 µM (JAK1): 40 to 79%; inhibition at 0.1 µM (TYK2): 40 to 79%
6 | – | – | – | – | – | C=CC(=O)Nc1cc(C)ccc1Nc1nc(Nc2ccc3c(c2)OCCN(C)CCO3)ncc1C(F)(F)F [Example 112, N-(5-methyl-2-((2-((4-methyl-3,4,5,6-tetrahydro-2H-benzo[b][1,4,7]dioxazolin-9-yl)amino)-5-(trifluoromethyl)pyrimidin-4-yl)amino)phenyl)acrylamide] | inhibition at 0.01 µM (CDK7; at 10 nM): 40 to 79%
7 | > 80% | > 80% | 40 to 79% | 25 to 39% | > 80% | CN1CCOCCOc2cc(Nc3nc(-c4cnn([C@H](CC#N)C5CCCC5)c4)c4cc[nH]c4n3)ccc2OCC1 [Example 74, (R)-3-cyclopentyl-3-(4-(2-((7-methyl-2,3,6,7,8,9-hexahydro-5H-benzo[b][1,4,7]trioxa[10]azacyclododecan-13-yl)amino)-7H-pyrrolo[2,3-d]pyrimidin-4-yl)-1H-pyrazol-1-yl) propionitrile] | –
8 | > 80% | > 80% | 40 to 79% | > 80% | > 80% | CCS(=O)(=O)N1CC(CC#N)(n2cc(-c3nc(Nc4ccc5c(c4)OCCN(C)CCOCCO5)nc4[nH]ccc34)cn2)C1 [Example 49, 2-(1-(ethylsulfonyl)-3-(4-(2-((7-methyl-2,3,6,7,8,9-hexahydro-5H-benzo[b][1,4,7]trioxa[10]azacyclododecan-12-yl)amino)-7H-pyrrolo[2,3-d]pyrimidin-4-yl)-1H-pyrazol-1-yl)azetidin-3-yl)acetonitrile] | –
9 | > 80% | > 80% | > 80% | > 80% | > 80% | CN1CCOc2ccc(Nc3nc(-c4cnn([C@@H](CC#N)C5CCCC5)c4)c4cc[nH]c4n3)cc2OCC1 [Example 77, (S)-3-cyclopentyl-3-(4-(2-((4-methyl-3,4,5,6-tetrahydro-2H-benzo[b][1,4,7]dioxazolin-9-yl)amino)-7H-pyrrolo[2,3-d]pyrimidin-4-yl)-1H-pyrazol-1-yl)propanenitrile] | –
10 | > 80% | 40 to 79% | 25 to 39% | 40 to 79% | 25 to 39% | CN1CCOCCOc2ccc(Nc3nc(-c4ccc(C(=O)NCC#N)cc4)c4cc[nH]c4n3)cc2OCC1 [Example 51, N-(cyanomethyl)-4-(2-((7-methyl-2,3,6,7,8,9-hexahydro-5H-benzo[b][1,4,7]trioxa [10]azacyclododecan-12-yl)amino)-7H-pyrrolo[2,3-d]pyrimidin-4-yl)benzamide] | –
11 | – | – | – | – | – | CN1CCOc2ccc(Nc3nc(-c4cn(C)c5ccccc45)c4cn[nH]c4n3)cc2OCC1 [Example 5, 4-methyl-N-(4-(1-methyl-1H-indol-3-yl)-1H-pyrazolo[3,4-d]pyrimidin-6-yl)-3,4,5,6-tetrahydro-2H-benzo[b][1,4,7]dioxazolin-9-amine] | inhibition at 0.1 µM (CDK7; at 100 nM): 25 to 39%
12 | > 80% | – | – | – | – | CN1CCOCCOc2cc(Nc3ncc(F)c(Nc4cccc(S(=O)(=O)NC(C)(C)C)c4)n3)ccc2OCC1 [Example 9, N-(tert-butyl)-3-((5-fluoro-2-((7-methyl-2,3,6,7,8,9-hexahydro-5H-benzo[b][1,4,7]trioxa[10]azacyclododecan-13-yl)amino)pyrimidin-4-yl)amino)benzenesulfonamide] | inhibition at 0.1 µM (JAK2): > 80%; IC50 (JAK2): < 50 nM; inhibition at 0.1 µM (JAK3): 40 to 79%; inhibition at 0.1 µM (LRRK2): 40 to 79%; inhibition at 0.1 µM (JAK1): 25 to 39%; inhibition at 0.1 µM (TYK2): 40 to 79%
